# How the values were obtained:
# [1] = system: RAW-Blue cells; assay: Cell viability (MTT) assay; type: cell-based, murine; settings: 24 hours
# Description: Cells are cultured for 24 hours in the presence of Pd-Ib at the concentrations indicated, from 1.25-100 μg/mL. Cell viability is assessed using MTT assay. Data are derived from three independent experiments and presented as mean±SEM. “con” stands for the vehicle control group.
# Cells (5×10^4) are cultured in 96-well plates for 24 hours. Then cells are cultured with various concentrations of Pd-Ib (1.25, 2.5, 5, 10, 20, 40, 80, 100 μg/mL) for 24 hours. After that, 10 μL of 5 mg/mL MTT is added to each well, and the cells are cultured in the dark for 3 hours. The medium is then discarded, and 100 μL of dimethyl sulfoxide (DMSO) is added into each well. After 15 min incubation, the optical density at 570 nm is read by using a micro-plate reader to determine the cell viability.
# [2] = system: NF-κB p65; assay: Immunofluorescence staining of NF-κB nuclear translocation; type: cell-based, murine; settings: 5-20 μg/mL pretreatment 2 hours, LPS 1 μg/mL 20 hours
# Description: Data are derived from three independent experiments. Original magnification, 40×.
# Raw-Blue cells are cultured (20×10^4 cells/well) on glass coverslips and incubated for 24 hours. Cells are pretreated with various concentrations (5-20 μg/mL) of Pd-Ib for 2 hours. Then treated with LPS (1 μg/mL) for 20 hours. Subsequently, the coverslips are rinsed twice with PBS, and cells are fixed in 4% paraformaldehyde (PFA) in PBS at room temperature for 15 minutes. Cellular and nuclear membranes of the macrophages are permeabilized by treatment with 3% Triton X-100 in PBS for 15 minutes. After being blocked with 3% bovine serum albumin (BSA) in PBS for 1 hour, the cells is incubated with primary antibody in 3% BSA/PBS (1:500 dilution) at 4° C. overnight. After washing with PBS, the cells are incubated with the red-conjugated secondary antibody (1:500 dilution) in 3% BSA/PBS at room temperature for 1 hour and finally washed again for three time with PBS. Then, counter-staining is performed with DAPI (1:1,000 dilution) in 3% BSA/PBS nucleus with for 10 minutes. The cells are washed for three times with PBS, and then anti-fade mounting medium is added. Samples are observed under a fluorescence microscope.
# [3] = system: IL-1β; assay: Real-time PCR of IL-1β mRNA in LPS-stimulated RAW-Blue cells; type: cell-based, murine; settings: LPS 1 μg/mL, 5, 10, 20 μg/mL, 20 hours
# Description: After macrophages are treated with 1 μg/mL of LPS in absence or presence various concentrations of Pd-Ib (5, 10, 20 μg/mL) for 20 hours, the mRNA levels of iNOS (A), TNF-α (B) and IL-1β (C) are determined by real time PCR, while the production of NO (D) is determined by Griess reagent. Data are derived from three independent experiments and presented as mean±SEM, “con” stands for the vehicle control group. ^#Compared with control group. *P<0.05, **P<0.01 and ***P<0.001 are compared with LPS-alone group.
# Raw-Blue cells are plated at 20×10^5 cells/well in 12-well plate. After 24 hours of incubation, cells are pretreated with various concentrations (5-20 μg/mL) of Pd-Ib for 2 hours, followed by co-culturing with LPS (1 μg/mL) for 20 hours. Total RNA of Raw-Blue cells is extracted by Trizol reagent. Two micrograms (2 μg) of total RNA are reverse-transcribed with RT master mix to obtain cDNA. Real-time PCR is performed in a ViiA7 real-time PCR instrument (Applied Biosystems, Life Technologies, CA, USA) with the SYBR Green kit. A melting curve analysis is carried out after amplification to verify the accuracy of the amplicon. The comparative cycle of threshold (ΔΔCT) method of relative quantification is used to determine the fold-change in expression. Primer sequences for mRNA analysis of IL-1β, TNF-α, iNOS and β-Actin are described in Table 1.
# [4] = system: Myeloperoxidase (MPO); assay: Neutrophil infiltration in colon tissue (MPO assay); type: in vivo, C57BL/6 mice; settings: DSS-induced colitic mice, Pd-Ib treatment groups
# Description: Myeloperoxidase (MPO) is an enzyme mainly released by neutrophil, and its activity is directly associated with the severity of inflammation in a given tissue. In this example, MPO activity is measured as described in our previous study. Briefly, the colon tissues kept at −80° C. are weighed and homogenized in 0.5% hexadecyltrimethylammonium bromide 1 mL per 100 mg of colon tissue. The homogenates are centrifuged at 19 000 rpm at 4° C. for 15 min. Aliquots of 80 iL supernatant are mixed with 120 μL potassium phosphate buffer (50 mmol, pH 6.0) with 0.0005% o-dianisidine dihydrochloride and 0.1% hydrogen peroxide. Changes in optical density are measured at 460 nm at room temperature (25° C.). MPO activity is calculated from the rate of optical density changes and one unit of MPO activity is defined as the amount of enzyme present that produced a change in optical density of […] at 25° C. in the final reaction volume. The results are normalized to the wet weight of colon tissue and quantified as units/mg tissue.
# Colitis is induced in all groups except the control group. Pd-Ib and sulfasalazine are administered to mice from day 6 to day 12. On day 13, the mice are sacrificed, and MPO activity is determined in colon homogenates. Data are expressed as mean±SEM, n=8 (*p<0.05, **p<0.01, ***p<0.001, compared with DSS model group).
# [5] = system: IL-4; assay: ELISA of IL-4 in colon tissue, DSS-induced colitis; type: in vivo, C57BL/6 mice; settings: compared with the DSS treatment group; increase in IL-4
# Description: Colon levels of cytokines are assayed using commercially available ELISA kits. Briefly, colon samples are homogenized in phosphate buffer containing 0.05% Tween-20, 0.1 mM phenylmethylsulfonyl fluoride, 0.1 mM benzethonium chloride, 10 mM EDTA, and 20 IU aprotinin A. The homogenates are centrifuged at 16000 g at 4° C. for 15 min, and the supernatants are collected for the determination of levels of the cytokines, IL-6, IL-4, TNF-α, and IFN-γ, according to the manufacturer's protocols. The amount of protein in each sample is measured by the Bradford method, using bovine serum albumin as a standard. The levels of each cytokine are evaluated in each sample and expressed in […].
# Colitis is induced in all groups except the control group. Pd-Ib and sulfasalazine are administered to mice from day 6 to day 12. On day 13, the mice are sacrificed, Data are expressed as mean±SEM, n=8 (*p<0.05, **p<0.01, ***p<0.001, compared with DSS model group).
compound,measurement,setting,value
"C/C=C(\C)C(=O)OC1C(=O)c2c(ccc3ccc(=O)oc23)OC1(C)C (single isomer, unassigned; (+)) [Pd-Ib, (+)-3′-Angeloyloxy-4′-keto-3′,4′-dihydroseselin]",cytotoxic effect,[1]; 1.56 to 20 μg/mL,does not exhibit cytotoxic effect
same,cell viability,"[1]; 40, 80, and 100 μg/mL",cell viability is reduced
same,p65 nuclear translocation,[2],significantly inhibits the p65 nuclear translocation
same,mRNA expression of IL-1β,[3],inhibit the mRNA expressions of TNF-α and IL-1β in a dose-dependent manner
same,MPO activity in colon,[4],suppresses MPO activity significantly
same,production of IL-4 in colon tissue,[5],significant effect on the production of IL-4 in a dose-dependent manner
